Data from patent US7544438B2, “Electron mediator, electron mediator immobilized electrode, and biofuel cell using the electrode” (Daiichi Pure Chemicals Co., Ltd, priority 2003, dated 2009).

Tests used:
[1] = Cyclic voltammetry (CV), redox potential of mediator molecule; assay type: physicochemical; conditions: 0.09 mM mediator in Tris buffer solution (pH 8.5); glassy carbon electrode; Ag|AgCl (saturated KCl) reference; 5 mV/s
Description: [Cyclic Voltammetry (CV), Redox Potential of Mediator Molecule]
The obtained voltammogram represents the potential on an abscissa axis and the current on an ordinate axis. The CV involves relatively easy experiments and sharply reflects not only equilibrium parameters such as the redox potential or diffusion information but also kinetic parameters of an electrode reaction or of a chemical reaction in solution. Thus, the CV is a method of electrochemical measurement allowing an intuitive grasp of the electrode reaction.
The CV for mediator evaluation involves measuring in an electrolytic solution consisting of the buffer with various mediators, diaphorase, and NADH added.
A potentiostat mode of Hokuto Denko HZ-3000 was used. A glassy carbon electrode (GDE, electrode area of about 0.083 cm^2) was used as a working electrode. The GDE was polished with an aluminum powder of 0.05 μm and subjected to ultrasonic cleaning in deionized water before every measurement. A three electrode cell was used, and a Pt electrode and an Ag|AgCl (saturated KCl) electrode were used as a counter electrode and a reference electrode, respectively for the measurement. A potential was changed at a rate of 5 mV/s. A measurement sample was subjected to sufficient bubbling with N2 gas before the measurement to remove dissolved oxygen, and the N2 gas overflowed during the measurement. All measurements began from an open circuit potential.
Cyclic voltammograms with (a) in FIGS. 5A to 5F are measurement of 0.09 mM solutions of the various mediators prepared using a Tris buffer solution (pH 8.5).

[2] = system: Dp (DIAPHORASE I, [EC 1.6.99.-]); test: Reaction kinetic analysis between diaphorase (Dp) and mediator by CV; assay type: biochemical, Bacillus stearothermophilus; conditions: comparison of FMA with AQS, FIG. 6
Description: A technique of reaction kinetic analysis between an enzyme and a mediator molecule using CV will be described referring to a document (Kazuyoshi Takagi, Kenji Kano, Tokuji Ikeda, J. Electroanal. Chem., 1988, 445, 211-219). Dp catalyses an oxidation reaction of NADH in the presence of an appropriate mediator (Mox) as represented by the following equation (4).
An NADH oxidation rate (νE, ox) may be represented by the following equation (5) on an assumption that an enzyme reaction follows a ping-pong mechanism.
In addition, vE, ox of equation (5) can be approximated as the following equation (6) when Mox concentration is negligibly small ([Mox]<<KM, ox) in the vicinity of the electrode surface.
From the above, kcat, ox/KM, ox clearly represents a reaction rate constant between DPred and Mox. Further, steady state limiting current of catalyst (Is, ox) observed at a more positive potential from the redox potential of the mediator molecule can be represented by the following equation (7).
The reaction rate constant kcat, ox/KM, ox can be estimated from the measured limiting current value using the above equation (7).
On the other hand, cyclic voltammograms with (b) in FIGS. 5A to 5F are measurement results of the above mediator solutions with 0.11 μM of Dp ([…], [EC 1.6.99.-], from Bacillus stearothermophilus, available from Unitika Ltd.) and 4.8 mM of NADH added. […]

Row | redox formal potentials (E^0M′) approximated at middle points of oxidation peaks and reduction peaks [1] [V] | Structure (SMILES) | reaction rate constant larger than that of the AQS by [2] [digit]
1 | −0.32 | CC1=C(CCCN)C(=O)c2ccccc2C1=O [APVK3, 2-(3-aminopropyl)-3-methyl-1,4-naphthoquinone] | 
2 | −0.32 | CC1=C(CCCC(=O)O)C(=O)c2ccccc2C1=O [CPVK3, 2-(3-carboxypropyl)-3-methyl-1,4-naphthoquinone] | 
3 | −0.28 | CC1=CC(=O)c2ccccc2C1=O [VK3, 2-methyl-1,4-naphthoquinone] | 

The remaining lines, values behind:

Row | Structure (SMILES) | redox formal potentials (E^0M′) approximated at middle points of oxidation peaks and reduction peaks [1] [V] | reaction rate constant larger than that of the AQS by [2] [digit]
4 | CC1=C(CCCC(=O)NCCN)C(=O)c2ccccc2C1=O [AEACPVK3, 2-{3-[N-(2-aminoethyl)aminocarbonyl]propyl}-3-methyl-1,4-naphthoquinone] | −0.32 | 
5 | O=C1c2ccccc2C(=O)c2cc(S(=O)(=O)[O-])ccc21.[Na+] [AQS, sodium anthraquinone-2-sulfonate] | −0.49 | 
6 | OC[c-]1cccc1.[Fe+2].c1cc[cH-]c1 [FMA, ferrocene methanol] | 0.23 | ≥ 1
